# According to US11820782B2, “Salt forms of amino pyrazine purine based selective kinase inhibitor” (FTG BIO LLC, priority 2018, dated 2023):
# Assays:
# [1] = Equilibrium solubility in pH 6.8 0.01M phosphate buffer by HPLC; type: physicochemical; details: pH6.8 0.01M potassium dihydrogen phosphate buffer
# [2] = 1 week stability of shortlisted salts at 40° C./75% RH, open; type: physicochemical; details: after 7 days at 40° C./75% RH, open
substance,measurement,setting,value
Fumarate,Solubility in pH 6.8 buffer,[1],2.62 mg/mL
same,% purity,[2]; HPLC,95.81%
same,XRD,[2]; physical form vs initial,Same as initial form
